Measured values published in PMC7917639, “Nopol-Based Quinoline Derivatives as Antiplasmodial Agents” (Molecules, 2021).

Assays:
[1] = test system: P. falciparum 3D7 (Pf3D7, chloroquine-sensitive strain); experiment: Pf3D7 asexual blood-stage growth inhibition, SYBR Green fluorescence assay; type: cell-based, Plasmodium falciparum; settings: for Pf3D7 selectivity index (SI, CC50/EC50): Hep G2 CC50 / Pf3D7 EC50; for EC50: Plasmodium falciparum, 3D7, erythrocytic asexual culture, 96 h, SYBR Green, read-out: Pf3D7 EC50; for Antiplasmodial activity against Pf3D7 (in words): chloroquine-sensitive strain
Protocol: a. Pf3D7: 100 μL of complete media (Sigma-Aldrich’s RPMI 1640, 25 mM HEPES, 10 μg/mL gentamicin, 0.5 mM hypoxanthine supplemented with NaHCO3 and 0.5% Albumax II, 37 °C) containing compounds (50–0.3 µM) or 100 µM chloroquine were added to 96 well plates in triplicates. This was followed by the addition of 100 µL erythrocytic asexual culture of Pf3D7 (10% hematocrit and 0.25% ring stage parasitemia), maintained at atmospheric conditions of 1% oxygen, 5% carbon dioxide, and 94% nitrogen, and allowed to grow for 96 h at 37 °C. The cultures were then frozen at −80 °C overnight and thawed at 37 °C for 4 h. Aliquots (100 µL) from each well were transferred to black 96-well plates, 100 μL of 2× SYBR Green (Molecular Probes) in lysis buffer (20 mM Tris at pH 7.5, 5 mM EDTA, 0.008% saponin, 0.08% Triton X-100) was added to each well and mixed thoroughly with a pipette. The plates were incubated in the dark at room temperature for 1 h and read at λex 485 nm and λem 530 nm. Infected and untreated red blood cells (iRBC) cultures served as negative control. Percent inhibitory activities were calculated using (=100 − 100*((Sample − 100 µM CQ)/(iRBC − 100 µM CQ)) and used to plot sigmoidal inhibition curves to obtain the EC50 values.

PfNF54 = PfNF54 erythrocytic stage growth inhibition, [3H]-hypoxanthine incorporation assay; type: cell-based, Plasmodium falciparum
Protocol: b. PfNH54 and PfK1: The growth inhibitory activities of the compounds against erythrocytic stages of PfNH54 and PfK1 were determined using the [^3H]-hypoxanthine incorporation assay as previously reported. […] The CPMs were expressed as a percentage of the CPMs from the untreated controls and used to estimate the EC50 from sigmoidal inhibition curves. Artemisinin and CQ were used as positive controls.

PfK1 = PfK1 erythrocytic stage growth inhibition, [3H]-hypoxanthine incorporation assay; type: cell-based, Plasmodium falciparum; settings: multidrug-resistant strain
Protocol: b. PfNH54 and PfK1: The growth inhibitory activities of the compounds against erythrocytic stages of PfNH54 and PfK1 were determined using the [^3H]-hypoxanthine incorporation assay as previously reported. Parasites in RPMI 1640 medium containing […] (without hypoxanthine) were treated with compounds (50–0.3 µM) in 96 well plates for 48 h at 37 °C in 92% N2, 5% CO2, and 3% O2. ^3H-hypoxanthine (0.5 μCi) was added to each well, incubated for an additional 24 h, harvested onto glass-fiber filters, and washed with distilled water. Radioactivity at each compound concentration was counted using a Betaplate™ liquid scintillation counter (Wallac, Zurich), and the results were recorded as counts per minute (CPM) per well. The CPMs were expressed as a percentage of the CPMs from the untreated controls and used to estimate the EC50 from sigmoidal inhibition curves. Artemisinin and CQ were used as positive controls.

Cytotoxicity assay (MTT) = type: cell-based, Human; settings: human, read-out: Hep G2 CC50
Protocol: Human hepatocarcinoma cell line (Hep G2, ATCC CRL-11997TM) was used for cytotoxicity studies as previously described. The cells were grown in complete medium (DMEM:F12 containing L-glutamine and sodium bicarbonate, 10% FBS, 1% penicillin/streptomycin, Thermo Fisher Scientific) at 37 °C in 5% CO2 environment. Cells (198 µL, 5 × 10^5/mL) were seeded into 96-well plates and incubated overnight. The cells were treated with the compounds (160–1.25 µM, in triplicates) or DMSO (1%) for 72 h. The cell medium was removed and replaced with DMEM:F12 medium containing MTT (0.5 mg/mL) was added to the cells and incubated for 1.5 h. The MTT-containing medium was gently removed and replaced with DMSO (200 µL/well). The contents of each well were then repeatedly mixed with a multichannel pipette and incubated for 10 min. The plates were read at 570 nm. DMSO-treated (1%) cells were used as negative assay control and SDS (10%) was used as assay positive control. Percent cell viabilities were expressed as a percentage of the mean viability of DMSO-treated (1%) cells.

[2] = test system: Human hepatocarcinoma cell line (Hep G2); experiment: Cytotoxicity assay (MTT); type: cell-based; settings: SDS 0.1%, assay positive control

## CC1(C)[C@@H]2CC=C(CCOC(=O)c3cc4ccccc4nc3Cl)[C@H]1C2 (stereo in doubt) [Compound 14, 2-((1S,5R)-6,6-dimethylbicyclo[3.1.1]hept-2-en-2-yl)ethyl-2-chloroquinoline-3-carboxylate]
[1]
  Pf3D7 selectivity index (SI, CC50/EC50): 13.6
  EC50: 4.04 ± 0.03 µM
  Antiplasmodial activity against Pf3D7 (in words): moderately active
PfNF54
  Antiplasmodial activity against NF54 strain (in words): inactive
PfK1
  Antiplasmodial activity against K1 strain (in words): inactive
Cytotoxicity assay (MTT)
  CC50 at 72 h: 55.2 ± 1.2 µM

## Cc1cc(C(=O)OCC[C@@]23O[C@@H]2C[C@@H]2C[C@H]3C2(C)C)c2ccc(Cl)cc2n1 (stereo in doubt) [Compound 16, 2-((1S,2S,4R,6S)-7,7-dimethyl-3-oxatricyclo[4.1.1.0 2,4]octan-2-yl)ethyl-7-chloro-2-methylquinoline-4-carboxylate]
[1]
  Pf3D7 selectivity index (SI, CC50/EC50): 1.9
  EC50: 40.4 ± 1.58 µM
  Antiplasmodial activity against Pf3D7 (in words): weakly active but nonselective
Cytotoxicity assay (MTT)
  CC50 at 72 h: 76.8 ± 6.5 µM

## CCCCCCCCCCCCOS(=O)(=O)[O-].[Na+] [SDS (0.1%)]
[2]
  Hep G2 percent viability: ^b 1%
